In patent US7731971B2, “Enhanced CTL epitope-containing HIV-1 reverse transcriptase polypeptides” (The United States of America as represented by the …, priority 2003, dated 2010):

Columns and labels:
[1] = tested on: vaccinia virus expressing a reverse transcriptase protein of HIV (vCF21); parameters: species or system HHD-2 mice; conditions: mouse, in vivo
[2] = tested on: vaccinia virus expressing a β-galactosidase protein (vSC8); parameters: species or system HHD-2 mice; conditions: mouse, in vivo

YLYQYMDDV was tested, and the “protection against vCF21 infection” value [1] was “only partially protected” and the “protection against vaccinia strain (vSC8) that does not express RT” value [2] was “Neither population of mice displayed protection”.
